From US20250009896A1, “SUPR[…] BASED VIRAL […] CAPTURE FOR PREVENTION AND THERAPY OF VIRAL INFECTION” (The Johns Hopkins University, priority 2023, published 2025)
pKd, pKi: −log10 of the molar value. Residues, ends and D or L forms follow the SMILES beside them. *: point of attachment. Lauroyl = CCCCCCCCCCCC(=O)*

Tests used:
[1] = Critical micelle concentration by Nile Red assay; type: physicochemical; conditions: MilliQ water pH=7.4, Nile Red assay
Method: Using a Nile Red assay, the CMC of each PA monomer (Filler and Ligand) and their co-assembly (1:1 molar ratio) was determined. Nile Red dye intensely fluoresces within hydrophobic environments but is strongly quenched and red-shifted in aqueous environments. Thus, when mixed with PAs at a concentration exceeding the CMC, Nile Red will embed within the hydrophobic core and emit a strong fluorescence signal. A 500 μM stock solution of Nile Red was prepared in acetone, and 10 μL of the stock was added to microcentrifuge tubes. Acetone was evaporated off in the dark. Solutions of the samples (500 μL, water) were added to the tubes at varied concentrations and were aged for 2 days in the dark at room temperature. Samples were added to a quartz micro fluorometer cell (0.7 mL, 10 mm pathlength, Starna Cells, Atascadero, CA), and at an excitation wavelength of 550 nm, five parallel emission spectra were recorded at a wavelength range of 580 to 720 nm on a Duetta UV-Vis-NIR spectrofluorometer (HORIBA Scientific). The emission intensity ratio for each run at 635 nm (emission maximum of Nile Red in a hydrophobic environment) to 660 nm (emission maximum of Nile Red in a hydrophilic environment) was plotted against tested concentrations to obtain a transition curve from which CMC was determined.

[2] = molecular target: Recombinant human angiotensin-converting enzyme 2 (ACE2) (Homo sapiens, UniProt Q9BYF1); experiment: ACE2 activity assay with fluorogenic peptide substrate Mca-YVADAPK(Dnp)-OH; conditions: 50 nM ACE2; 1 mM Filler or 50 μM Ligand
VSVG PsV = type: cell-based, vesicular stomatitis virus
SARS-CoV-2 PsV = type: cell-based; conditions: 0.5 nM ACE2 dose
SARS-CoV PsV = type: cell-based
ACE2 [3] = molecular target: T1, ACE2 (Homo sapiens, UniProt Q9BYF1); conditions: cited from earlier work
ACE2 [4] = molecular target: T1, ACE2; conditions: ACE2 inhibitor; cited from earlier work

T1 sequence (Q9BYF1 18-805): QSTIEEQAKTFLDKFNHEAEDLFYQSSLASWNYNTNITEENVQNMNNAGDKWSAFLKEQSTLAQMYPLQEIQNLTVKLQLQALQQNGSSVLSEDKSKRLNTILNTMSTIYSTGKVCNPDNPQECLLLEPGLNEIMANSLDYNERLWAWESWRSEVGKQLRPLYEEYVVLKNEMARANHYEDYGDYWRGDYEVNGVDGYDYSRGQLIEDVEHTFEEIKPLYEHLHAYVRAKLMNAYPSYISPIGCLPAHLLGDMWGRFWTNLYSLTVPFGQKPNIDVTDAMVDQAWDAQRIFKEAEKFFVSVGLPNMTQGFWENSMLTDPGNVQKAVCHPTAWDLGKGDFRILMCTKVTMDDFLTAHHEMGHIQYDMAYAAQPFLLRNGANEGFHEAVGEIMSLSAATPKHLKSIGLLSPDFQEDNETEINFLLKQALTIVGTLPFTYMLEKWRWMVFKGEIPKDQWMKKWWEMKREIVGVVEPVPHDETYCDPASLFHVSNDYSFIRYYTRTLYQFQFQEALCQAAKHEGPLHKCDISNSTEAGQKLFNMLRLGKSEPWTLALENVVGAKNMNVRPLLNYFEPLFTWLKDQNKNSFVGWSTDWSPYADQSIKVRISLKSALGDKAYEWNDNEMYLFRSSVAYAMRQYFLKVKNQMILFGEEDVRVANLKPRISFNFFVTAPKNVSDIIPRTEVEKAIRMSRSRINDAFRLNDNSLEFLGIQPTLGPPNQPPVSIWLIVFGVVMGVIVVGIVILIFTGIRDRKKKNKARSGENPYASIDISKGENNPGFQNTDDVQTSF
Recombinant human angiotensin-converting enzyme 2 (ACE2), sequence (Q9BYF1 18-740): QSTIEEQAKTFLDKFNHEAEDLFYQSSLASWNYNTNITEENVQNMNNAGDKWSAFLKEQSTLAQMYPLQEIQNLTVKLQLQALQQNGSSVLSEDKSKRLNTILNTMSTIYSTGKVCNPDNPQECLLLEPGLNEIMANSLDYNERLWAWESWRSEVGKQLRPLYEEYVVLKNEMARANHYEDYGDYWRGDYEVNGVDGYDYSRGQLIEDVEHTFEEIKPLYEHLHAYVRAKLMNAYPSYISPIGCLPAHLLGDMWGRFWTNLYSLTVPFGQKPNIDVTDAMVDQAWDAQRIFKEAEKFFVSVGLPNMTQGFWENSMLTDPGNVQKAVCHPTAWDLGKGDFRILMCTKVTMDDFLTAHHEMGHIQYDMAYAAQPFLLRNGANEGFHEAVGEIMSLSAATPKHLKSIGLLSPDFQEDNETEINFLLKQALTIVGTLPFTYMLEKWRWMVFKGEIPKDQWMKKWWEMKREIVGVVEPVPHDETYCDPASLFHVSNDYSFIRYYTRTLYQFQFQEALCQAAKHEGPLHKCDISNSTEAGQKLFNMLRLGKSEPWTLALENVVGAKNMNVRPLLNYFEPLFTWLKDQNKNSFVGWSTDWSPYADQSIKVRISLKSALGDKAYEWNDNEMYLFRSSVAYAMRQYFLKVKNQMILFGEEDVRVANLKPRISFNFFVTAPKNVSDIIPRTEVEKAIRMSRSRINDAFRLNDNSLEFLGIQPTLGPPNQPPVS

## CCCCCCCCCCCC(=O)N[C@H](C(=O)N[C@H](C(=O)N[C@H](C(=O)NCC(=O)N[C@@H](CCC(=O)O)C(=O)N[C@@H](CCC(=O)O)C(N)=O)C(C)C)C(C)C)C(C)C [Filler] (Lauroyl-VVVGEE-NH2)
[1]
  critical micelle concentration (CMC): around 2.9 μM
[2]
  impact on ACE2 activity / initial velocity: slight impact on ACE2 activity

## ACE2: Recombinant human angiotensin-converting enzyme 2 (ACE2) protein (carrier-free), R&D Systems
VSVG PsV
  VSVG PsV infection inhibition (dose-dependent strong inhibition trend): not observed
SARS-CoV-2 PsV
  incubation time at which inhibition becomes identical to / indistinguishable from empty filaments: ≤ 6 h
SARS-CoV PsV
  SARS-CoV PsV infection inhibition: strongly inhibited

## non-cleavable peptidic ACE2 inhibitor GDYSHCSPLRYYPWWKCTYPDPEGGG (SEQ ID NO: 5/16) [DX600]
ACE2 [3]
  pKd: 8.00
ACE2 [4]
  pKi: 8.55
